Test system: zebra fish (Danio rerio) embryos
Experiment: Movement pattern analysis of zebra fish embryos subjected to challenge (Example 5)
Assay type: in vivo
Details: 30 minutes exposure
Method: Images of the movement of each subject embryo were recorded for a period of ten minutes. The imaging apparatus comprised a 4 megapixel monochrome camera (AVT Pike 421) operating at 15 Hz with a 1600×1200 pixel region of interest, connected to a zooming optic lens system (Keyence VHZ100R).
This temporal tracking technique first extracts corner features from each image. Thereafter, image features are registered from frame to frame and assigned a velocity variance to each, A feature with a high velocity variance was rejected, as indicating inaccurate tracking. The remaining features were used in subsequent analysis of the movement pattern of the embryo.
Four parameters of motion of the subject embryo were extracted from each frame of the image data and compared with the corresponding parameters in the preceding frames. The four parameters of motion were positive and negative angles of rotation, and Rho-theta angular changes to the centre of mass for the embryo. The centre of mass of the embryo was determined by determining the X and Y coordinates of every point of motion detected. The X and Y coordinates were summed to provide mean values for X and Y.
The resulting data were analysed for spectral content using the Fast Discrete Fourier Transform (FDFT), to generate data relating to the frequency of motion of the subject embryo. […] 18 frequency bins were analysed from the FDFT analysis. […]

## CCO [ethanol]
1.5% ethanol in deionised water, stage 19 and 21.5 hpf embryos, 27° C
  movement pattern (optic flow) compared with the control embryos: more peaks in positive and negative rotational movement and X and Y displacement of the centre of mass
1.5% ethanol, stage 33 embryos
  distinction from control embryos by ANOSIM analysis of movement patterns: readily distinguished from the stage 33 control embryos
